# Experimental data as given in patent publication US8933099B2, “Monocyclic pyridine derivative” (Eisai R&D Management Co., Ltd., priority 2013, dated 2015).
# How the values were obtained:
# [1] = tested on: human endometrial cancer cell line MFE280 xenograft; assay: Antitumor effect in MFE280 subcutaneous xenograft model in mice; type: in vivo; settings: oral, once a day for 14 days, tumor volume last day
# Source text: Human endometrial cancer cell line MFE280 (DSMZ Number ACC-410), which had been cultured in an RPMI-1640 medium containing 10% FBS, and penicillin and streptomycin, were adjusted to a concentration of 4.7×10^7 cells/mL with Hanks' Balanced Salt Solution (GIBCO 1124020) to prepare a cell suspension, and the suspension was mixed with […] (BD Biosciences, Cat#354234) in a ratio of 1:1 to prepare a cell suspension in a concentration of 2.4×10^7 cells/ml. The cell suspension was inoculated in a volume of 100 μL into a subcutaneous part of a right flank of nude mice, 7 weeks of age (BALB/cAJcl-nu/nu, female, Clea Japan Inc.). Thirty five days after cell inoculation, the shortest diameter and the longest diameter of a tumor in each mouse were measured by using an electronic digital caliper (Digimatic™ caliper, Mitutoyo Corporation), so as to calculate the volume of the tumor in accordance with the following calculation formula: Tumor volume(mm^3)=Longest diameter(mm)×Shortest diameter(mm)×Shortest diameter(mm)/2
# (§1) On the basis of the volumes of tumors obtained on the fast day of administration, the nude mice were grouped such that averages of the tumor volumes were substantially equal among the groups. Each test substance was dissolved in DMSO, Tween 80 was added thereto to prepare a solution in a 10-fold concentration and the thus prepared solution was stored at the freezer before use. Immediately before the administration, the stock solution was diluted with a 5% glucose solution to obtain a final administration solution (in which a ratio in % among DMSO, Tween 80 and the 5% glucose solution was 3.5:6.5:90). Each evaluation sample was orally administered to test substance administration group at a volume of 0.4 mL per 20 g of body weight once a day continuously for 14 days, and in a control group, an administration solvent was orally administered under the same conditions. Incidentally, the experiment was conducted on groups each consisting of 5 mice.
# (§2) With respect to each of the control group and test substance administration group, a ratio of the weight measured on the final day to the weight measured on the first day (relative body weight: RBW) was calculated. If a ratio of the RBW of the test substance administration group/the RBW of the control group is 0.9 or more, the corresponding test substance administration group was defined as a well-tolerated. In the test substance administration group thus defined as well-tolerated, a ratio of the tumor volume of the test substance-dosing group to the tumor volume of the control group obtained on the last day (TIC) (%) was calculated, and shown in Table 28.
# [2] = tested on: human endometrial cancer cell line AN3CA xenograft; assay: Antitumor effect in AN3CA subcutaneous xenograft model in mice; type: in vivo; settings: oral, once a day for 14 days, tumor volume last day
# Source text: Human endometrial cancer cell line AN3CA (ATCC Number HTB-111), which had been cultured in an RPM-1640 medium containing 10% FBS, and penicillin and streptomycin, were adjusted to a concentration of 1×10^8 cells/mL with Hanks' Balanced Salt Solution (GIBCO #24020) to prepare a cell suspension, and the suspension was mixed with […] (BD Biosciences, Cat#354234) in a ratio of 1:1 to prepare a cell suspension in a concentration of 5×10^7 cells/ml. The cell suspension was inoculated in a volume of […] into a subcutaneous part of a right flank of nude mice, 7 weeks of age (BALB/cAJcl-nu/nu, female, Clea Japan Inc.). Eleven days after cell inoculation, the shortest diameter and the longest diameter of a tumor in each mouse were measured by using an electronic digital caliper (Digimatic™ caliper, Mitutoyo Corporation), so as to calculate the volume of the tumor in accordance with the following calculation formula: Tumor volume(mm^3)=Longest diameter(mm)×Shortest diameter(mm)×Shortest diameter(mm)/2
# as §1, with “first” for “fast”
# as §2, with “(T/C)” for “(TIC)”, “26.” for “28.”
compound,measurement,setting,value
"CNC(=O)n1ccc2cc(Oc3ccnc(NC(=O)c4ccc(C5CCN(CCO)CC5)cc4)c3)c(OCCOC)cc21 [Example 22, 5-((2-(4-(1-(2-Hydroxyethyl)piperidin-4-yl)benzamide)pyridin-4-yl)oxy)-6-(2-methoxyethoxy)-N-methyl-1H-indole-1-carboxamide]",T/C (%),[1]; 6.25 mg/kg,72%
same,T/C (%),[1]; 12.5 mg/kg,57%
same,T/C (%),[1]; 25 mg/kg,31%
same,T/C (%),[1]; 50 mg/kg,11%
same,T/C (%),[2]; 6.25 mg/kg,29%
same,T/C (%),[2]; 12.5 mg/kg,11%
same,T/C (%),[2]; 25 mg/kg,4%
same,T/C (%),[2]; 50 mg/kg,2%
